Experimental data as given in ChEMBL document CHEMBL4177667, “Design, synthesis, and anticancer properties of isocorydine derivatives” (Bioorg Med Chem, 2017).
≈ marks a conversion by molar mass, not a printed value. Calls of active or inactive are those of the source. The calls are words filed in the database; no cut-off is given here.

Assays:
[1] = tested on: H22; test: Synergistic antitumor activity against mouse H22 cells implanted in mouse assessed as tumor growth inhibition at 100 mg/kg, ip or ig qd administered for 10 consecutive days measured after 24 hrs post last dose in presence of sorafenib relative to control; format: functional; settings: read-out: TGI
[2] = tested on: HepG2; test: Synergistic growth inhibition against human HepG2 cells assessed as fold change in sorafenib IC50 at 5 ug/ml after 24 hrs by MTT assay; format: functional
[3] = tested on: HepG2; test: Induction of apoptosis in human HepG2 cells assessed as necrotic cells at 5 ug/ml after 24 hrs by Annexin V-FITC/propidium iodide staining-based flow cytometric analysis (reference value: 0%); format: functional
[4] = tested on: HepG2; test: Cell cycle arrest in human HepG2 cells assessed as decrease in accumulation of cells at G0/G1 phase at 10 ug/ml after 48 hrs by propidium iodide staining-based flow cytometric analysis; format: functional
[5] = tested on: HepG2; test: Synergistic downregulation of C-myc protein levels in human HepG2 cells at 10 ug/ml after 48 hrs in presence of sorafenib by Western blot analysis; format: functional, cell-based
[6] = tested on: MGC-803; test: Antiproliferative activity against human MGC803 cells after 48 hrs by MTT assay; format: functional, cell-based; settings: MGC-803, 48 h
[7] = tested on: HepG2; test: Downregulation of cyclin D1 protein levels in human HepG2 cells after 48 hrs by Western blot analysis; format: functional, cell-based
[8] = tested on: HepG2; test: Synergistic downregulation of Ki67 protein levels in human HepG2 cells at 10 ug/ml after 48 hrs in presence of sorafenib by Western blot analysis; format: functional, cell-based
[9] = tested on: HepG2; test: Synergistic downregulation of cyclin D1 protein levels in human HepG2 cells at 10 ug/ml after 48 hrs in presence of sorafenib by Western blot analysis; format: functional, cell-based
[10] = tested on: H22; test: Antitumor activity against mouse H22 cells implanted in mouse assessed as tumor growth inhibition at 100 mg/kg, ig qd administered for 10 consecutive days measured after 24 hrs post last dose relative to control; format: functional; settings: H22, po, read-out: TGI
[11] = tested on: H22; test: Antitumor activity against mouse H22 cells implanted in mouse assessed as tumor growth inhibition at 100 mg/kg, ip qd administered for 10 consecutive days measured after 24 hrs post last dose relative to control; format: functional; settings: read-out: TGI
[12] = tested on: HepG2; test: cells; settings: Homo sapiens, HepG2, 48 h
[13] = tested on: HepG2; test: Synergistic cell cycle arrest in human HepG2 cells assessed as decrease in accumulation of cells at G0/G1 phase at 10 ug/ml after 48 hrs in presence of sorafenib by propidium iodide staining-based flow cytometric analysis; format: functional
[14] = tested on: HepG2; test: Induction of apoptosis in human HepG2 cells assessed as late apoptotic cells at 5 ug/ml after 24 hrs by Annexin V-FITC/propidium iodide staining-based flow cytometric analysis (reference value: 0%); format: functional
[15] = tested on: H22; test: Antitumor activity against mouse H22 cells implanted in mouse assessed as tumor growth inhibition at 50 mg/kg, ip qd administered for 10 consecutive days measured after 24 hrs post last dose relative to control; format: functional; settings: read-out: TGI
[16] = tested on: HepG2; test: Downregulation of Ki67 protein levels in human HepG2 cells after 48 hrs by Western blot analysis; format: functional, cell-based
[17] = tested on: HepG2; test: Synergistic downregulation of beta-catenin protein levels in human HepG2 cells at 10 ug/ml after 48 hrs in presence of sorafenib by Western blot analysis; format: functional, cell-based
[18] = tested on: H22; test: Antitumor activity against mouse H22 cells implanted in mouse assessed as tumor growth inhibition at 50 mg/kg, ig qd administered for 10 consecutive days measured after 24 hrs post last dose relative to control; format: functional; settings: H22, po, read-out: TGI
[19] = tested on: HepG2; test: Synergistic induction of apoptosis in human HepG2 cells assessed as necrotic cells at 10 ug/ml after 24 hrs in presence of sorafenib by Annexin V-FITC/propidium iodide staining-based flow cytometric analysis (reference value: 0%); format: functional
[20] = tested on: HepG2; test: Downregulation of C-myc protein levels in human HepG2 cells after 48 hrs by Western blot analysis; format: functional, cell-based
[21] = tested on: HepG2; test: Synergistic growth inhibition against human HepG2 cells assessed as fold change in sorafenib IC50 at 2.50 ug/ml after 24 hrs by MTT assay; format: functional
[22] = tested on: HepG2; test: cells; settings: Homo sapiens, HepG2, 24 h
Description: Antiproliferative activity against human HepG2 cells after 24 hrs by MTT assay

[23] = tested on: HepG2; test: Induction of apoptosis in human HepG2 cells assessed as viable cells at 5 ug/ml after 24 hrs by Annexin V-FITC/propidium iodide staining-based flow cytometric analysis (reference value: 99.82%); format: functional; settings: HepG2, 24 h, read-out: Activity
[24] = tested on: HepG2; test: Synergistic upregulation of vementin protein levels in human HepG2 cells at 10 ug/ml after 48 hrs in presence of sorafenib by Western blot analysis; format: functional, cell-based
[25] = tested on: HepG2; test: Synergistic induction of apoptosis in human HepG2 cells assessed as early apoptotic cells at 10 ug/ml after 24 hrs in presence of sorafenib by Annexin V-FITC/propidium iodide staining-based flow cytometric analysis (reference value: 0.18%); format: functional
[26] = tested on: HepG2; test: Induction of apoptosis in human HepG2 cells assessed as late apoptotic cells at 10 ug/ml after 24 hrs by Annexin V-FITC/propidium iodide staining-based flow cytometric analysis (reference value: 0%); format: functional
[27] = tested on: U-251; test: Antiproliferative activity against human U251 cells after 48 hrs by MTT assay; format: functional, cell-based; settings: U-251, 48 h
[28] = tested on: H22; test: Antitumor activity against mouse H22 cells implanted in mouse assessed as tumor growth inhibition at 150 mg/kg, ip qd administered for 10 consecutive days measured after 24 hrs post last dose relative to control; format: functional; settings: read-out: TGI
[29] = tested on: H22; test: Synergistic antitumor activity against mouse H22 cells implanted in mouse assessed as tumor growth inhibition at 50 mg/kg, ip or ig qd administered for 10 consecutive days measured after 24 hrs post last dose in presence of sorafenib relative to control; format: functional; settings: read-out: TGI
[30] = tested on: HepG2; test: Cell cycle arrest in human HepG2 cells assessed as increase in accumulation of cells at G2/M phase at 10 ug/ml after 48 hrs by propidium iodide staining-based flow cytometric analysis; format: functional
[31] = tested on: HepG2; test: Induction of apoptosis in human HepG2 cells assessed as early apoptotic cells at 10 ug/ml after 24 hrs by Annexin V-FITC/propidium iodide staining-based flow cytometric analysis (reference value: 0.18%); format: functional
[32] = tested on: HeLa; test: cells; settings: Homo sapiens, 48 h
[33] = tested on: HepG2; test: Induction of apoptosis in human HepG2 cells assessed as viable cells at 10 ug/ml after 24 hrs by Annexin V-FITC/propidium iodide staining-based flow cytometric analysis (reference value: 99.82%); format: functional; settings: HepG2, 24 h, read-out: Activity
[34] = tested on: H22; test: Synergistic antitumor activity against mouse H22 cells implanted in mouse assessed as tumor growth inhibition at 150 mg/kg, ip or ig qd administered for 10 consecutive days measured after 24 hrs post last dose in presence of sorafenib relative to control; format: functional; settings: read-out: TGI
[35] = tested on: HepG2; test: Induction of apoptosis in human HepG2 cells assessed as necrotic cells at 10 ug/ml after 24 hrs by Annexin V-FITC/propidium iodide staining-based flow cytometric analysis (reference value: 0%); format: functional
[36] = tested on: SMMC-7721; test: Antiproliferative activity against human SMMC7721 cells after 48 hrs by MTT assay; format: functional, cell-based; settings: SMMC-7721, 48 h
[37] = tested on: MDA-MB-231; test: Antiproliferative activity against human MDA-MB-231 cells after 48 hrs by MTT assay; format: functional, cell-based; settings: MDA-MB-231, 48 h
[38] = tested on: HepG2; test: Synergistic growth inhibition against human HepG2 cells assessed as fold change in sorafenib IC50 at 10 ug/ml after 24 hrs by MTT assay; format: functional
[39] = tested on: HepG2; test: Synergistic induction of apoptosis in human HepG2 cells assessed as viable cells at 10 ug/ml after 24 hrs in presence of sorafenib by Annexin V-FITC/propidium iodide staining-based flow cytometric analysis (reference value: 99.82%); format: functional; settings: HepG2, 24 h, read-out: Activity
[40] = tested on: HepG2; test: Upregulation of vimentin protein levels in human HepG2 cells at 5 to 20 ug/ml after 48 hrs by Western blot analysis; format: functional, cell-based
[41] = tested on: HepG2; test: Downregulation of beta-Catenin protein levels in human HepG2 cells after 48 hrs by Western blot analysis; format: functional, cell-based
[42] = tested on: HepG2; test: Antiproliferative activity against human HepG2 cells after 72 hrs by MTT assay; format: functional, cell-based; settings: HepG2, 72 h
[43] = tested on: H22; test: Antitumor activity against mouse H22 cells implanted in mouse assessed as tumor growth inhibition at 150 mg/kg, ig qd administered for 10 consecutive days measured after 24 hrs post last dose relative to control; format: functional; settings: H22, po, read-out: TGI
[44] = tested on: HepG2; test: Induction of apoptosis in human HepG2 cells assessed as early apoptotic cells at 5 ug/ml after 24 hrs by Annexin V-FITC/propidium iodide staining-based flow cytometric analysis (reference value: 0.18%); format: functional
[45] = tested on: HepG2; test: Synergistic induction of apoptosis in human HepG2 cells assessed as late apoptotic cells at 10 ug/ml after 24 hrs in presence of sorafenib by Annexin V-FITC/propidium iodide staining-based flow cytometric analysis (reference value: 0%); format: functional

`COc1cc(NC(=O)Nc2ccc(Cl)c(C(F)(F)F)c2)c2c(c1O)-c1c(OC)c(OC)cc3c1[C@H](C2)N(C)CC3` was tested, and the inhibition in vivo at 100 mg/kg [1] was 65.1%, the “fold change (FC)” value [2] was 1.25 and the Activity [3] was 0.07%. The Activity [4] was “Active”, the Activity [5] was “Active” and the IC50 [6] was 16.6 µM. The Activity [7] was “Dose-dependent effect”, the Activity [8] was “Active” and the Activity [9] was “Active”. For the same molecule, the inhibition in vivo at 100 mg/kg [10] was 48.2%, the inhibition in vivo at 100 mg/kg [11] was 46.3% and the IC50 [12] was 17.2 µM. The Activity [13] was “Active”, the Activity [14] was 2.14% and the inhibition in vivo at 50 mg/kg [15] was 40.3%. For the same molecule, the Activity [16] was “Dose-dependent effect”, the Activity [17] was “Active” and the inhibition in vivo at 50 mg/kg [18] was 40.1%. The Activity [19] was 0.06%, the Activity [20] was “Dose-dependent effect” and the “fold change (FC)” value [21] was 0.91. For the same molecule, the IC50 [22] was 16.8 µg/mL (≈ 29.1 µM), the viability at 5 µg/mL [23] was 91% and the Activity [24] was “inactive”. The Activity [25] was 44.33%, the Activity [26] was 8.78% and the IC50 [27] was 10.1 µg/mL (≈ 17.5 µM). The inhibition in vivo at 150 mg/kg [28] was 50.8%, the inhibition in vivo at 50 mg/kg [29] was 63.1% and the Activity [30] was “Active”. It also gave an Activity [31] of 3.11%, an IC50 [32] of 26.5 µM and a viability at 10 µg/mL [33] of 88.1%. It also gave an inhibition in vivo at 150 mg/kg [34] of 70.6%, an Activity [35] of 0.04% and an IC50 [36] of 18.6 µg/mL (≈ 32.2 µM). The IC50 [37] was 15.6 µg/mL (≈ 27 µM), the “fold change (FC)” value [38] was 2.04 and the viability at 10 µg/mL [39] was 36.3%. For the same molecule, the Activity [40] was “Active”, the Activity [41] was “Dose-dependent effect” and the IC50 [42] was 6.7 µg/mL (≈ 11.6 µM). It also gave an inhibition in vivo at 150 mg/kg [43] of 53.4%, an Activity [44] of 6.8% and an Activity [45] of 19.34%.
